# Patent US11377469B2, “CD73 inhibitors” (ORIC Pharmaceuticals, Inc., priority 2017, dated 2022)
# Biological target: CD73 (Homo sapiens (Human), UniProt P21589)
# Test: Biochemical Assay (CD73 inhibition, AMP hydrolysis, Malachite Green readout)
# Details: CD73 0.3208 nM, AMP 15 μM, Tris-HCl pH 7.4, Malachite Green absorbance
# Experimental: Example A1: Biochemical Assay
# Assay Reaction Conditions
# • Assay Volume: 70 μl • Reaction Volume: 50 μl • CD73: 0.3208 nM • AMP: 15 μM • Assay Buffer: 2 5 mM Tris-HCL, pH 7.4, 0.01% Brij-35, 0.01% BSA, 5 mM MgCl2 Assay Procedure:
# Made dose titration of testing compounds in assay buffer, 10 points ½ log titrations in duplicates starting at 100 μM.
# Added 25 μl of CD73 to each well for a final concentration of 320 pM.
# Incubated at RT for 15 min.
# Added 25 μl of AMP to each well for a final concentration of 15 μM.
# Incubated at RT for 10 min.
# Added 10 μl of Malachite Green Reagent A, incubate at RT for 10 min.
# Added 10 μl of Malachite Green Reagent B, incubate at RT for 45 min. […]
# The ability of the compounds disclosed herein to inhibit CD73 activity was quantified and the respective IC50 values were determined. Table 1 provides the biochemical IC50 values of compounds disclosed herein.
# CD73, sequence (P21589 27-574): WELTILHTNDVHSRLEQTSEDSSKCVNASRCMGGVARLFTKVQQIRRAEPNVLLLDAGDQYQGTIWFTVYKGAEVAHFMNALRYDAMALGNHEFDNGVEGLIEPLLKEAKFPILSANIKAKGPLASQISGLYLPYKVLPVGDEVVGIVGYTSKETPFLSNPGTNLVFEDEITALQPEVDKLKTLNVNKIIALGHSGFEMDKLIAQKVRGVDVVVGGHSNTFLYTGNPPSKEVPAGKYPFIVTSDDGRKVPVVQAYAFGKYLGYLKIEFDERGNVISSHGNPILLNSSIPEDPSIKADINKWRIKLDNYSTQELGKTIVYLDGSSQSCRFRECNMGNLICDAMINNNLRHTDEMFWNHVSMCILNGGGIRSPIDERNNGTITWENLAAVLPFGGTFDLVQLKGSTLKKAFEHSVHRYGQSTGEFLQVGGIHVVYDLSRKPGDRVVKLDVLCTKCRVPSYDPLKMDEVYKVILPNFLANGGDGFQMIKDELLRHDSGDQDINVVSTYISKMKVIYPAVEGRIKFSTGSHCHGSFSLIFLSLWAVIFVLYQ
row,SMILES,IC50
1,"Cc1nc(NCc2cccc(Cl)c2)c2cnn([C@@H]3O[C@H](COCP(=O)(O)O)[C@@H](O)[C@H]3O)c2n1 [Example 44, ((((2R,3S,4R,5R)-5-(4-((3-chlorobenzyl)amino)-6-methyl-1H-pyrazolo[3,4-d]pyrimidin-1-yl)-3,4-dihydroxytetrahydrofuran-2-yl)methoxy)methyl)phosphonic acid]",> 1000 nM
2,"CN(c1nc(Cl)nc2c1cnn2[C@@H]1O[C@H](COCP(=O)(O)O)[C@@H](O)[C@H]1O)C1CCCC1 [Example 53, ((((2R,3S,4R,5R)-5-(6-chloro-4-(cyclopentyl(methyl)amino)-1H-pyrazolo[3,4-d]pyrimidin-1-yl)-3,4-dihydroxytetrahydrofuran-2-yl)methoxy)methyl)phosphonic acid]",≤ 500 nM
3,"O=P(O)(O)COC[C@H]1O[C@@H](n2ncc3c(N4CCOCC4)nc(Cl)nc32)[C@H](O)[C@@H]1O [Example 42, ((((2R,3S,4R,5R)-5-(6-chloro-4-morpholino-1H-pyrazolo[3,4-d]pyrimidin-1-yl)-3,4-dihydroxytetrahydrofuran-2-yl)methoxy)methyl)phosphonic acid]",≤ 500 nM
4,"O=P(O)(O)COC[C@H]1O[C@@H](n2ncc3c(NCc4ccccc4Cl)nc(CO)nc32)[C@H](O)[C@@H]1O [Example 17, ((((2R,3S,4R,5R)-5-(4-((2-Chlorobenzyl)amino)-6-(hydroxymethyl)-1H-pyrazolo[3,4-d]pyrimidin-1-yl)-3,4-dihydroxytetrahydrofuran-2-yl)methoxy)methyl)phosphonic acid]",≤ 500 nM
5,"CN(c1nc(Cl)nc2c1cnn2[C@@H]1O[C@H](COCP(=O)(O)O)[C@@H](O)[C@H]1O)[C@H]1CCc2ccccc21 [Example 31, ((((2R,3S,4R,5R)-5-(6-chloro-4-(((S)-2,3-dihydro-1H-inden-1-yl)(methyl)amino)-1H-pyrazolo[3,4-d]pyrimidin-1-yl)-3,4-dihydroxytetrahydrofuran-2-yl)methoxy)methyl)phosphonic acid]",≤ 500 nM

# The remaining lines, values ahead:
row,IC50,SMILES
1,≤ 500 nM,"O=P(O)(O)CS(=O)(=O)C[C@H]1O[C@@H](n2ncc3c(NCC4CCC4)nc(Cl)nc32)[C@H](O)[C@@H]1O [Example 111, (((((2S,3S,4R,5R)-5-(6-chloro-4-((cyclobutylmethyl)amino)-1H-pyrazolo[3,4-d]pyrimidin-1-yl)-3,4-dihydroxytetrahydrofuran-2-yl)methyl)sulfonyl)methyl)phosphonic acid]"
2,≤ 500 nM,"O=P(O)(O)COC[C@H]1O[C@@H](n2ncc3c(NC4CCCCC4)nc(Cl)nc32)[C@H](O)[C@@H]1O [Example 93, ((((2R,3S,4R,5R)-5-(6-chloro-4-(cyclohexylamino)-1H-pyrazolo[3,4-d]pyrimidin-1-yl)-3,4-dihydroxytetrahydrofuran-2-yl)methoxy)methyl)phosphonic acid]"
3,≤ 500 nM,"O=P(O)(O)CS(=O)(=O)C[C@H]1O[C@@H](n2ncc3c(NCc4ccc(F)cc4)nc(Cl)nc32)[C@H](O)[C@@H]1O [Example 117, (((((2S,3S,4R,5R)-5-(6-chloro-4-((4-fluorobenzyl)amino)-1H-pyrazolo[3,4-d]pyrimidin-1-yl)-3,4-dihydroxytetrahydrofuran-2-yl)methyl)sulfonyl)methyl)phosphonic acid]"
4,≤ 500 nM,"C[C@H]1CCC[C@H]1Nc1nc(Cl)nc2c1cnn2[C@@H]1O[C@H](CS(=O)(=O)CP(=O)(O)O)[C@@H](O)[C@H]1O [Example 134, (((((2S,3S,4R,5R)-5-(6-chloro-4-(((1R,2S)-2-methylcyclopentyl)amino)-1H-pyrazolo[3,4-d]pyrimidin-1-yl)-3,4-dihydroxytetrahydrofuran-2-yl)methyl)sulfonyl)methyl)phosphonic acid]"
5,> 1000 nM,"C[C@@H](OCP(=O)(O)O)[C@H]1O[C@@H](n2ncc3c(NCc4ccccc4Cl)nc(Cl)nc32)[C@H](O)[C@@H]1O [Example 60, (((R)-1-((2S,3S,4R,5R)-5-(6-chloro-4-((2-chlorobenzyl)amino)-1H-pyrazolo[3,4-d]pyrimidin-1-yl)-3,4-dihydroxytetrahydrofuran-2-yl)ethoxy)methyl)phosphonic acid]"
